Laboratory results as given in ChEMBL document CHEMBL4715869, “N-(Pyrimidin-2-yl)-1,2,3,4-tetrahydroisoquinolin-6-amine Derivatives as Selective Janus Kinase 2 Inhibitors for the Treatment of Myeloproliferative Neoplasms” (J Med Chem, 2020).

Tests used:
[1] = test system: Receptor-type tyrosine-protein kinase FLT3 (Homo sapiens), P36888 [UNDEFINED MUTATION]; assay: Inhibition of FLT3 ITD mutant in human MOLM13 cells assessed as residual activity at 100 nM relative to control; type: cell-based; conditions: MOLM-13
[2] = Inhibition of JAK2 V617F mutant in mouse BaF3 cells assessed as reduction in cell viability incubated for 72 hrs by MTT assay
SET-2 = assay: Antitumor activity against human SET2 cells xenografted in NOD/SCID mouse assessed as tumor growth inhibition at 60 mg/kg, po qd administered for 16 days and measured every 2 days relative to control; type: functional; conditions: SET-2, po, 384 h, time 16 day, read-out: TGI
BaF3 = assay: Antitumor activity against mouse BAF3 cells harboring JAK2 V617F mutant implanted in Balb/c mouse assessed as decrease in liver weight at 60 mg/kg, po qd administered starting from day 4 to 20 and measured on day 25 relative to control; type: functional; parameters: scale not given: the % may be the effect or the level left; conditions: time 21 day

Receptor-type tyrosine-protein kinase FLT3 (Homo sapiens), P36888 [UNDEFINED MUTATION], sequence (P36888 whole entry, looked up, stated change not applied): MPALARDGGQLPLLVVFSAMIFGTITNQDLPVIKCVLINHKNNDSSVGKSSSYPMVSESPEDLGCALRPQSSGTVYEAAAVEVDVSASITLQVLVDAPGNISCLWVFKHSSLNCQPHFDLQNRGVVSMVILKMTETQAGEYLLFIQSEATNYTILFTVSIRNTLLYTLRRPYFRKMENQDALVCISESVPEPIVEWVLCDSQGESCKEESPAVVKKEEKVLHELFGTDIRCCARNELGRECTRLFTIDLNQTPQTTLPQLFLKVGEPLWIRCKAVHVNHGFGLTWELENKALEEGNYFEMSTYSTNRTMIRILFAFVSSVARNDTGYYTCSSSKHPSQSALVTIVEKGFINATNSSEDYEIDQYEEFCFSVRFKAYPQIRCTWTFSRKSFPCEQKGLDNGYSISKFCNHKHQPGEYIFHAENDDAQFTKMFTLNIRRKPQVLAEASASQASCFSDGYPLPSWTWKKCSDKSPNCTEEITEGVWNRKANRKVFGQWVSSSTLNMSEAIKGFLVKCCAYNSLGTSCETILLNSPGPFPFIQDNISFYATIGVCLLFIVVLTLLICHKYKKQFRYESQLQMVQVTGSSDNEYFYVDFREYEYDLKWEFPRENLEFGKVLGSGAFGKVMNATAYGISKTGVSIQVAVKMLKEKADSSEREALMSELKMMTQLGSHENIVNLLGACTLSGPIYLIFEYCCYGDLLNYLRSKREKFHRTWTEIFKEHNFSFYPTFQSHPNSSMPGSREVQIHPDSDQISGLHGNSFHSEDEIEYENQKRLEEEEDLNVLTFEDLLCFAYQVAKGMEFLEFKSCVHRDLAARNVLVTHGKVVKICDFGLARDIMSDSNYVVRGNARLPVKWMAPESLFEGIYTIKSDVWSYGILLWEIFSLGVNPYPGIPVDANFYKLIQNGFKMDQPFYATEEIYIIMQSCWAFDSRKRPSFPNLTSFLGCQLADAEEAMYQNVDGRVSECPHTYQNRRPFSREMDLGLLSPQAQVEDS

Row | SMILES | Activity [1] [%] | IC50 [2] [nM] | inhibition in vivo at 60 mg/kg (SET-2) [%] | Activity (BaF3) [%]
1 | Cc1cnc(Nc2ccc(N3CCC(N(C)CCO)CC3)c(F)c2)nc1-c1cnn(C(C)C)c1 | 5 | 145 | – | –
2 | N#CC[C@H](C1CCCC1)n1cc(-c2ncnc3[nH]ccc23)cn1 [RUXOLITINIB] | – | – | 52.8 | 80.4
